According to US20130116195A1, “Binding ligand linked drug delivery conjugates of tubulysins” (priority 2009, published 2013):

Target: T1, folate receptors (FRs) on KB cells (Homo sapiens, UniProt P15328)
T1 construct: FR-positive KB cells were heavily seeded into 24-well cell culture plates; endogenous in cells; host or cells: KB cells
Experiment: Relative Affinity Assay (displacement of 3H-folic acid)
Format: binding
Conditions: 10% serum/FDRPMI; folic acid set to 1
Procedure: METHOD: Relative Affinity Assay. The affinity for folate receptors (FRs) relative to folate was determined according to a previously described method (Westerhof, G. R., J. H. Schornagel, et al. (1995) Mol. Pharm. 48: 459-471) with slight modification. Briefly, FR-positive KB cells were heavily seeded into 24-well cell culture plates and allowed to adhere to the plastic for 18 h. Spent incubation media was replaced in designated wells with folate-free RPMI (FFRPMI) supplemented with 100 nM ^3H-folic acid in the absence and presence of increasing concentrations of test article or folic acid. Cells were incubated for 60 min at 37° C. and then rinsed 3 times with PBS, pH 7.4. Five hundred microliters of 1% SDS in PBS, pH 7.4, were added per well. Cell lysates were then collected and added to individual vials containing 5 mL of scintillation cocktail, and then counted for radioactivity. Negative control tubes contained only the ^3H-folic acid in FFRPMI (no competitor). Positive control tubes contained a final concentration of 1 mM folic acid, and CPMs measured in these samples (representing non-specific binding of label) were subtracted from all samples.

T1 sequence (P15328 25-234): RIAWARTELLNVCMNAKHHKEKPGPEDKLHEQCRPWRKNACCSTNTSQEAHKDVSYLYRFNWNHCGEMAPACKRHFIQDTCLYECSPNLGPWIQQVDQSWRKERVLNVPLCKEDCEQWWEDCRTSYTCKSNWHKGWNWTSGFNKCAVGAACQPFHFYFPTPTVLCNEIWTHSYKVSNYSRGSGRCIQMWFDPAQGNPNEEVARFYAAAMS

relative affinity: 1
Structure (SMILES): Nc1nc2ncc(CNc3ccc(C(=O)N[C@@H](CCC(=O)O)C(=O)O)cc3)nc2c(=O)[nH]1 [folic acid]
